# From patent publication US8686130B2, “Artificial fluorescent bases” (Riken, priority 2009, dated 2014)
# pIC50: −log10 of the molar value. Where “and” joins values, the source holds several entries; their conditions need not be identical. Equal values may be shown once. Read-outs that look alike come from different tables or passages of the source.
# Assays:
# [1] = Fluorescence characteristics of base analog nucleosides; assay type: physicochemical; conditions: for Absorption maximum / Excitation wavelength / Fluorescence intensity (ε × φ) / Fluorescence wavelength / Molar absoption coefficient ε / Stokes shift: deoxyribonucleoside derivative; for Quantum yield (φ): quinine sulfate as a standard; for Fluorescence emitted by excitation at a wavelength of 350 nm or more: excitation 350 nm or more
# Description: Reagents and solvents were purchased from typical suppliers and were used without further purification. ^1H-NMR (300 MHz, 270 MHz) and ^31P-NMR (121 MHz) spectra were recorded on a BRUKER AV300 or JEOL nuclear magnetic resonance spectrometer. Synthesized nucleoside derivatives and nucleoside 5′-triphosphate were purified with a Gilson HPLC system using a fractionation column (Waters Microbond Sphere, C18, 19 mm×150 mm, flow rate: 10 mL/min) and a fractionation column (PEGASIL C8, Senshu Scientific Co., Ltd., 10 mm×150 mm, flow rate: 6 mL/min), respectively. Electrospray-ionization mass spectra (ESI-MS) were recorded on a Waters ZMD 4000 mass system equipped with a Waters 2690 LC system. Fluorescence spectra were measured with a JASCO FP6500 fluorescence spectrometer, and fluorescence quantum yields were determined using quinine sulfate as a standard.
# Fluorescence characteristics of nucleosides including an unnatural base, ss, sss, Dss, Dsss, Dsas, Dsav, or Dvas, were evaluated. For comparison, fluorescence characteristics of nucleosides including known unnatural bases, 2-aminopurine, s (2-amino-6-(2-thienyl)purin-9-yl group), v (2-amino-6-(2-thiazolyl)purin-9-yl group), and Ds (7-(2-thienyl)imidazo[4,5-b]pyridin-3-yl group) were also evaluated.
# [2] = cited from earlier work
# [3] = biological target: T7 RNA polymerase (Escherichia phage T7, UniProt P00573); conditions: 0.05 to 0.1 mM substrate, 1 mM natural NTPs, 37° C., 3 hr
# Sequence of T7 RNA polymerase (P00573 whole entry): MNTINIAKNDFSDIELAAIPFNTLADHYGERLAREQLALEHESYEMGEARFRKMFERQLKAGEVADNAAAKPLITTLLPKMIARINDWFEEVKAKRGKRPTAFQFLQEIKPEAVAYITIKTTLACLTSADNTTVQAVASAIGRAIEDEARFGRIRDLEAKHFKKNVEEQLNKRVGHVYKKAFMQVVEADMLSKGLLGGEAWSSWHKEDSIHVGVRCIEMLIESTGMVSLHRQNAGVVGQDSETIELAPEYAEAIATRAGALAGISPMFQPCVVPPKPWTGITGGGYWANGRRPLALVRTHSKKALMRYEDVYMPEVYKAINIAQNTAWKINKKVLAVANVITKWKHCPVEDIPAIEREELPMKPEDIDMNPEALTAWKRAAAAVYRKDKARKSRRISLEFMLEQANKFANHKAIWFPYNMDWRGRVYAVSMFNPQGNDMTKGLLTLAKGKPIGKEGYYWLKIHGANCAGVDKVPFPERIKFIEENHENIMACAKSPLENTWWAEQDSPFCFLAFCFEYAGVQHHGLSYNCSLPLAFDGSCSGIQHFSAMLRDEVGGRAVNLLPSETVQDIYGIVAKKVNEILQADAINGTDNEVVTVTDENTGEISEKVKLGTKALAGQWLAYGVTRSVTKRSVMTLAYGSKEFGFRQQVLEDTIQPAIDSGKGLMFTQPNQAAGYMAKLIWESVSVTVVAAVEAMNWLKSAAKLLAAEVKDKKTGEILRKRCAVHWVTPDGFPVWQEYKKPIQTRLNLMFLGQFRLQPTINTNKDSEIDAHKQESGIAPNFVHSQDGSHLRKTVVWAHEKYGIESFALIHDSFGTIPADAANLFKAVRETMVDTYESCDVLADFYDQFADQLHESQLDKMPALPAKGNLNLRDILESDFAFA
# Description: Templates for transcription by the T7 polymerase were prepared by heating chemically synthesized two DNA strands (10 μM coding strand (SEQ ID NO: 4) of 35-mer and non-coding strand (SEQ ID NO: 5) of 21-mer) at 95° C. in a 10 mM Tris-HCl buffer (pH 7.6) containing 10 mM NaCl and then slowly cooled to 4° C. for annealing. The transcription by the T7 polymerase was performed by using 2 μM of the template and 50 units of a T7 RNA polymerase (Takara Shuzo Co., Ltd., Kyoto) in a 40 mM Tris-HCl buffer (pH 8.0, 20 μL) containing 24 mM MgCl2, 2 mM spermidine, 5 mM DTT, and 0.01% Triton X-100 in the presence of 1 mM natural NTPs, 0.05 to 0.1 mM ssTP or DssTP (ribonucleoside 5′-triphosphate of ss or Dss). After the reaction at 37° C. for 3 hr, the reaction was terminated by addition of a dye solution (20 μL) containing 10 M urea and 0.05% BPB. […] The transcription product was protected by placing the gel on a TLC containing a fluorescent indicator, irradiating the gel with UV of 254 nm, and photographing the image with a Polaroid camera utilizing the phenomenon that nucleic acid absorbs the UV and thereby the band of the transcription product is detected as an image. The transcript including the unnatural fluorescent base ss or Dss was detected with a bio-imaging analyzer, LAS 4000 (Fujifilm Corporation) utilizing epi-UV LED.
# [4] = system: mRNA of firefly luciferase; assay: Suppression of firefly luciferase reporter gene expression by shRNA in HeLa cells (dual luciferase assay); assay type: cell-based; conditions: different shRNA concentrations, read-out: IC50 for suppressing expression of firefly luciferase gene
# Description: In this Example, various shRNAs prepared by T7 transcription and gel purification were introduced into HeLa cells by lipofection together with a plasmid encoding a target reporter gene (firefly luciferase) and a control plasmid endocing a Renilla luciferase gene. Suppression of the target gene expression was investigated based on the luminescence of luciferase. […]
# HeLa cells were seeded at 1.5×10^4 cells (100 μL of culture medium)/well in a 96-well plate and were cultured in an MEM medium containing 10% fetal bovine serum but not containing antibiotics for 24 hr. […] After culturing for 22 hr, the intensity of luminescence emitted from each of the two types of luciferase proteins was determined.
# The effect of suppressing expression of the firefly luciferase protein, which is the target of shRNA, was analyzed by the intensities of luminescence emitted from the firefly luciferase and Renilla luciferase using dual luciferase reporter assay reagent (Promega Corporation). […] The resulting solution was mixed with 100 μL of LAR II reagent, and the luminescence of the firefly luciferase was detected (exposure time: 120 sec) with LAS 4000 (Fujifilm Corporation), then, 100 μL of Stop & Glo reagent was added thereto, and the luminescence of the Renilla luciferase was detected (exposure time: 200 sec). […]
# [5] = biological target: Klenow fragment (exo+) (Escherichia coli, UniProt P00582); conditions: 0.5 μM dDssTP with 10 μM natural base substrate, 37° C.
# Sequence of Klenow fragment (exo+) (P00582 324-928): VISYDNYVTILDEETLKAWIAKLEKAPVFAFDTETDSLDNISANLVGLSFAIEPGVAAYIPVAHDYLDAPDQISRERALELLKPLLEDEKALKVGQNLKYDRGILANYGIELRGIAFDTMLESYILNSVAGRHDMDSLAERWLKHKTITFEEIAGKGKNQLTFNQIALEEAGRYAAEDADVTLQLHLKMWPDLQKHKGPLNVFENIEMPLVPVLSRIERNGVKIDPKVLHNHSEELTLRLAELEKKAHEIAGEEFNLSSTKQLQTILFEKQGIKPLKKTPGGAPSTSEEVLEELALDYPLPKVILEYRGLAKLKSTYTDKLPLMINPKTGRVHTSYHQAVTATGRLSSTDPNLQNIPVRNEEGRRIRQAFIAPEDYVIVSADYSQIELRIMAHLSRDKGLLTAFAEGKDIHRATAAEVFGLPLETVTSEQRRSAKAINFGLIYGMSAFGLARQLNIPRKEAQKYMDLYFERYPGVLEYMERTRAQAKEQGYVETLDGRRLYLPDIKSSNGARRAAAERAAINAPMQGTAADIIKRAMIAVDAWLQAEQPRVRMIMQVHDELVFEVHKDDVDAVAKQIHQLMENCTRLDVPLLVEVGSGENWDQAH
# Description: Template strand DNA (SEQ ID NO: 1,35-mer, 400 nM) dissolved in 2× reaction buffer (20 mM tris-HCl, pH 7.5, 14 mM MgCl2, 0.2 mM DTT) and a primer labeled with ^32P at the 5′-end (SEQ ID NO: 2,23-mer, 400 nM) were heated at 95° C. for 3 min and then slowly cooled for annealing to form a double strand. To each 5 μL of the resulting double-stranded DNA solution, 2.5 μL of a 4×dNTP solution mixture (40 μM dTTP, 40 μM dCTP, 0 to 40 μM dDssTP) and 2.5 μL (1 unit) of Klenow fragment (Takara Shuzo Co., Ltd.) diluted with water were added to start the enzyme reaction at 37° C. After incubation at 37° C., the reaction was terminated by addition of a TBE solution containing 10 μL of 10 M urea and heating at 75° C. for 3 min. A part of the reaction solution was subjected to electrophoresis with 15% polyacrylamide-7 M urea gel and analyzed with a bio-imaging analyzer (FLA7000, Fujifilm Corporation).
# [6] = from Ward et al., J. Biol. Chem. 1969
Compound,Absorption maximum [1] [nm],Excitation wavelength [1],Fluorescence intensity (ε × φ) [1],Fluorescence wavelength [1] [nm],Molar absoption coefficient ε [1] [M⁻¹ cm⁻¹],Stokes shift [1] [nm],Quantum yield (φ) [1],further results
"c1csc(-c2ccnc3nc[nH]c23)c1 [ds, 7-(2-thienyl)-imidazo[4,5-b]pyridine, reference compound]",353,350 nm and 351 nm,2576,429,11200,78,0.23,Fluorescence by excitation at a wavelength of 350 nm or more ([2]; background art): substantially invisible to the naked eye
"OC[C@H]1O[C@@H](n2cnc3c(-c4ccc(-c5ccc(-c6cccs6)s5)s4)ccnc32)C[C@@H]1O [dDsss, 7-(2,2′,5′,2″-terthien-5-yl)-3-(2-deoxy-β-D-ribofuranosyl)imidazo[4,5-b]pyridine]",403,407 nm,3132,489,34800,82,0.09,–
Nc1nc(-c2ccc(-c3cccs3)s2)c2ncn([C@@H]3O[C@H](COP(=O)(O)OP(=O)(O)OP(=O)(O)O)[C@@H](O)[C@H]3O)c2n1 [ssTP],–,–,–,–,–,–,–,Incorporation into RNA opposite Pa in template DNA [3]: selectively incorporated into RNA depending on Pa
"shRNAF1 WT: 52-mer short hairpin RNA (SEQ ID NO: 10) targeting mRNA of firefly luciferase, A36 unsubstituted (GGAGCCUUCAGGAUUACAAGAUUCAAGAGUCUUGUAAUCCUGAAGGCUCCUU; short hairpin RNA, synthesis route not given here, further chemistry not given here)",–,–,–,–,–,–,–,pIC50 [4]: ~10.70
"O=P(O)(O)OP(=O)(O)OP(=O)(O)OC[C@H]1O[C@@H](n2cnc3c(-c4ccc(-c5cccs5)s4)ccnc32)C[C@@H]1O [dDssTP, 7-(2,2′-bithien-5-yl)-3-(2-deoxy-β-D-ribofuranosyl)imidazo[4,5-b]pyridine 5′-triphosphate]",–,–,–,–,–,–,–,Incorporation into DNA opposite Pa in template DNA [5]: selectively incorporated into a complementary DNA strand
"OC[C@H]1O[C@@H](n2ccc3c(-c4ccc(-c5nccs5)s4)ccnc32)C[C@@H]1O [dDsav, 1-[2-deoxy-β-D-ribofuranosyl]-4-[2-(2-thiazolyl)thien-5-yl]pyrrolo[2,3-b]pyridine]",365,368 nm,2795,445,21500,77,0.13,–
"OC[C@H]1O[C@@H](n2ccc3c(-c4ccc(-c5cccs5)s4)ccnc32)C[C@@H]1O [dDsas, 1-[2-deoxy-β-D-ribofuranosyl]-4-(2,2′-bithien-5-yl)-pyrrolo[2,3-b]pyridine]",365,367 nm,2795,451,21500,84,0.13,–
"OC[C@H]1O[C@@H](n2ccc3c(-c4ncc(-c5cccs5)s4)ccnc32)C[C@@H]1O [dDvas, 1-[2-deoxy-β-D-ribofuranosyl]-4-[5-(2-thienyl)thiazol-2-yl]pyrrolo[2,3-b]pyridine]",377,378 nm,3780,449,27000,71,0.14,–
"Nc1nc(-c2nccs2)c2ncn([C@H]3C[C@H](O)[C@@H](CO)O3)c2n1 [dv, reference compound]",363,363 nm and 357 nm,3444,461,8400,104,0.41,Stability of nucleoside derivative under basic conditions: low stability
"Nc1nc(-c2ccc(-c3ccc(-c4cccs4)s3)s2)c2ncn([C@H]3C[C@H](O)[C@@H](CO)O3)c2n1 [dsss, 2-amino-6-(2,2′,5′,2″-terthien-5-yl)-9-(2-deoxy-β-D-ribofuranosyl)purine]",414,419 nm,4928,508,44800,89,0.11,–
"O=P(O)(O)OP(=O)(O)OP(=O)(O)OC[C@H]1O[C@@H](n2cnc3c(-c4ccc(-c5cccs5)s4)ccnc32)[C@H](O)[C@@H]1O [DssTP, 7-(2,2′-bithien-5-yl)-3-(β-D-ribofuranosyl)imidazo[4,5-b]pyridine 5′-triphosphate]",–,–,–,–,–,–,–,Incorporation into RNA opposite Pa in template DNA [3]: selectively incorporated into RNA depending on Pa
"OC[C@H]1O[C@@H](n2cnc3c(-c4ccc(-c5cccs5)s4)ccnc32)C[C@@H]1O [dDss, 7-(2,2′-bithien-5-yl)-3-(2-deoxy-β-D-ribofuranosyl)imidazo[4,5-b]pyridine]",370,371 nm,10400,442,32500,71,0.32,–
Nc1ncc2[nH]cnc2n1 [2-aminopurine],–,–,–,–,–,–,–,"Fluorescence emitted by excitation at a wavelength of 350 nm or more [1]: considerably low; Absorption maximum [2, 6]: 304 nm; Excitation wavelength [2, 6]: about 300 nm; Fluorescence intensity (ε × φ) [2, 6]: 4828; Fluorescence wavelength [2, 6]: 370 nm; Molar absoption coefficient ε [2, 6]: 7100 M⁻¹ cm⁻¹; Quantum yield (φ) [2, 6]: 0.68; Stokes shift [2, 6]: 67 nm; Excitation wavelength ([2]; from Ward et al., J. Biol. Chem. 1969, listed as 2-aminoprine): 303 nm"
"Nc1nc(-c2cccs2)c2[nH]cnc2n1 [s, 2-amino-6-thienylpurine]",–,–,–,–,–,–,–,Fluorescence wavelength ([2]; background art): 435 nm; Maximum excitation wavelength ([2]; background art): 348 nm
"OC[C@H]1O[C@@H](n2cnc3c(-c4cccs4)ccnc32)C[C@@H]1O [dDs, reference compound]",313,–,4180,366,22000,54,0.19,Fluorescence emitted by excitation at a wavelength of 350 nm or more [1]: does not emit light
